Some test systems named below: MDA-N; XF 498 CNS; SNB-78 CNS; DMS 273 small cell lung; M19-MEL melanoma; P388 leukemia; HOP-18 NSCLC; RXF-631 renal; LXFL 529 NSCLC; DMS 114 small cell lung.
Test in all cases: NCI tumour cell line growth inhibition, 48 h

The text below walks through data of PubChem BioAssay (NCI).

Where “and” joins values, the source holds several entries; their conditions need not be identical. Identical values can stand only once.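 Tested at 5 concentrations; 48 h exposure; 96-well plates; endpoints linearly interpolated, else capped at highest concentration. GI50 marks 50% less growth. TGI marks complete inhibition of growth.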

Take `NC(CSC(c1ccccc1)(c1ccccc1)c1ccccc1)C(=O)O` (stereo not given): the TGI in the assay on MDA-N turned out to be 12.5 µM; in the assay with XF 498 CNS it was 7.77 µM; in the assay with SNB-78 CNS, 95.9 µM; in the assay with DMS 273 small cell lung, 1.55 µM; in the assay on M19-MEL melanoma, 117 µM; in the assay with P388 leukemia, 38.8 µM. Besides, the TGI in the assay with HOP-18 NSCLC was found to be 116 µM. In addition, the GI50 is 711 nM and 959 nM in the assay with XF 498 CNS; 10.8 µM in the assay on SNB-78 CNS; 5.07 µM with M19-MEL melanoma.

Take `S=C1SCC2CCCN12` (stereo not given): the TGI in the assay on RXF-631 renal, in the assay with SNB-78 CNS, with LXFL 529 NSCLC, in the assay on DMS 273 small cell lung, in the assay with DMS 114 small cell lung and in the assay with M19-MEL melanoma was more than 100 µM throughout. The same compound showed a TGI with HOP-18 NSCLC of more than 100 µM.

Consider `Cc1cccc(NC(=O)c2c(N)[n+]([O-])c3ccccc3[n+]2[O-])c1`, for which the TGI in the assay on RXF-631 renal amounted to 3.24 µM; in the assay with XF 498 CNS it was 24.5 µM; in the assay on SNB-78 CNS, 35.4 µM; in the assay with LXFL 529 NSCLC, 22.9 µM; in the assay on DMS 273 small cell lung it was 22.1 µM; in the assay on M19-MEL melanoma it was 23.8 µM. The TGI with HOP-18 NSCLC came out at 32.2 µM.

With `Cc1cc(NS(=O)(=O)c2ccc(NC(=O)c3ccc(Cl)c4c(Nc5ccc(S(=O)(=O)Nc6cc(C)on6)cc5)c5ccccc5nc34)cc2)no1`, the TGI with XF 498 CNS was 75.9 µM; with SNB-78 CNS, 84.1 µM; in the assay with LXFL 529 NSCLC it was 48.5 µM; with DMS 273 small cell lung, 42 µM; in the assay on DMS 114 small cell lung it was 42.5 µM; in the assay on M19-MEL melanoma, 50.3 µM. Also, in the assay with HOP-18 NSCLC, the TGI came to 30.4 µM.

As for `CCCCC[C@@H]1CCCC2NC(CCCCCO[Si](c3ccccc3)(c3ccccc3)C(C)(C)C)CCC21` (stereo not given in full), the TGI with RXF-631 renal was 27.7 µM; in the assay on SNB-78 CNS, 30.2 µM; in the assay with DMS 273 small cell lung, 32.4 µM; with DMS 114 small cell lung it was 28.1 µM; in the assay with M19-MEL melanoma, 31.8 µM.

As to `CC1(Cl)C(=O)NC(=O)N([C@H]2C[C@H](O)[C@@H](CO)O2)C1N=[N+]=[N-]` (stereo not given in full), the TGI with RXF-631 renal, in the assay on XF 498 CNS, in the assay with SNB-78 CNS, in the assay on LXFL 529 NSCLC, in the assay with DMS 273 small cell lung and in the assay with DMS 114 small cell lung was more than 100 µM each time. Also, the TGI in the assay on M19-MEL melanoma and in the assay on HOP-18 NSCLC was more than 100 µM throughout.

Consider `CCOC(=O)c1ccc(N=Cc2ccc(N(CCC#N)S(=O)(=O)c3ccccc3)cc2C)cc1`, for which the TGI with RXF-631 renal, in the assay on XF 498 CNS, with SNB-78 CNS, in the assay on LXFL 529 NSCLC, in the assay with DMS 273 small cell lung and in the assay with DMS 114 small cell lung was more than 100 µM throughout. Moreover, the TGI in the assay on M19-MEL melanoma was more than 100 µM.

Turning to `C=CC[P@]1(=O)O[C@H](c2ccccc2)C(C)N1C(C)C` (stereo not given in full), the TGI with RXF-631 renal, with XF 498 CNS, in the assay on LXFL 529 NSCLC, with DMS 114 small cell lung, with M19-MEL melanoma and in the assay with HOP-18 NSCLC was more than 100 µM throughout.

For the compound `COc1ccc2c(=O)c(-c3cc(OC)c(OC)cc3OC)coc2c1`, the TGI in the assay on MDA-N is more than 100 µM; in the assay on RXF-631 renal, more than 100 µM; with XF 498 CNS, 8.07 µM; with SNB-78 CNS, more than 100 µM; in the assay on LXFL 529 NSCLC, more than 100 µM; in the assay on DMS 273 small cell lung, more than 100 µM. Moreover, the results for the TGI in the assay with DMS 114 small cell lung and in the assay with M19-MEL melanoma were more than 24.6 µM and more than 100 µM, respectively.

Turning to `COc1ccc2nc3cc(Cl)ccc3c(Sc3ccc(N)cc3)c2c1`, the TGI in the assay on RXF-631 renal came to 34.4 µM; in the assay with XF 498 CNS it was 27.5 µM; in the assay with SNB-78 CNS, 34 µM; with LXFL 529 NSCLC it was 16 µM; with DMS 273 small cell lung, 23.5 µM; with DMS 114 small cell lung it was 19 µM. In addition, the TGI came out at 20.2 µM in the assay with M19-MEL melanoma and 25.3 µM with HOP-18 NSCLC.

`COc1ccc2nc3cc(Cl)ccc3c(Nc3ccccc3-c3ccccc3Nc3c4ccc(Cl)cc4nc4ccc(OC)cc34)c2c1`: the TGI in the assay with MDA-N was 24.7 µM; in the assay on RXF-631 renal, more than 100 µM; in the assay on XF 498 CNS it was more than 76.2 µM; in the assay on SNB-78 CNS, more than 100 µM; with LXFL 529 NSCLC, more than 50.5 µM; in the assay on DMS 273 small cell lung, more than 54.9 µM. In addition, the figures for the TGI in the assay with M19-MEL melanoma and in the assay with HOP-18 NSCLC were more than 93.3 µM and more than 100 µM, respectively.

Turning to `CC1=CC(=O)NP(=O)(Oc2ccc(Cl)cc2)N1` (stereo not given), the TGI in the assay on XF 498 CNS, with SNB-78 CNS, with LXFL 529 NSCLC, with DMS 273 small cell lung, in the assay on DMS 114 small cell lung and in the assay with M19-MEL melanoma was more than 100 µM in each case. The compound also yielded a TGI in the assay on HOP-18 NSCLC of more than 100 µM.

Take `CC(=O)CC[N+](C)(C)C`: the TGI was more than 100 µM with MDA-N; more than 100 µM in the assay with RXF-631 renal; 19.7 µM in the assay with SNB-78 CNS; 27.2 µM in the assay with LXFL 529 NSCLC; 53.2 µM in the assay with DMS 273 small cell lung; more than 58.2 µM with M19-MEL melanoma. In addition, the TGI in the assay on HOP-18 NSCLC worked out at 30.5 µM.

As for `Cc1nc(-n2nc(-c3ccccc3)cc2-c2ccccc2)sc1C(=O)CC(=O)C(=O)Nc1ccc(Cl)c(Cl)c1`, the TGI with RXF-631 renal, with SNB-78 CNS, with LXFL 529 NSCLC, in the assay with DMS 273 small cell lung, with DMS 114 small cell lung and in the assay on M19-MEL melanoma was more than 100 µM throughout. The TGI in the assay with HOP-18 NSCLC is more than 100 µM.

Take `CCC/C=C/C=C/C(=O)OC1/C(=C/C(=O)OC)CC2CC(C(C)O)OC(=O)CC(O)CC3CC(OC(C)=O)C(C)(C)C(O)(CC4C/C(=C/C(=O)OC)CC(/C=C/C(C)(C)C1(O)O2)O4)O3` (stereo not given): the GI50 in the assay on MDA-N was more than 12.5 µM; in the assay with XF 498 CNS, 4430 nM; in the assay on SNB-78 CNS, 5.56 µM and 10.3 µM; in the assay on DMS 114 small cell lung, > 10900 nM and 2920 nM; in the assay with M19-MEL melanoma it was > 10.9 µM and 7.88 µM; in the assay with P388 leukemia, 9.73 µM. Moreover, the GI50 with HOP-18 NSCLC was 1.76 µM and 6.05 µM. Further, the TGI in the assay on MDA-N is 11 µM and > 12.5 µM; with XF 498 CNS, 11 µM; in the assay with SNB-78 CNS, 7.22 µM and 11 µM; with DMS 273 small cell lung it was > 10.9 µM and 11 µM; in the assay with DMS 114 small cell lung it was > 10.9 µM and 8.97 µM; in the assay with M19-MEL melanoma, > 10.9 µM and 11 µM. The TGI is 10.9 µM and 11 µM in the assay on P388 leukemia; 2.52 µM and 10.8 µM with HOP-18 NSCLC.

For `CC(=O)OC1(Sc2ccccc2)CC2[C@H]3COC(C)(C)O[C@H]3CC[C@@]2(C)CC1=O` (stereo not given in full), the TGI with RXF-631 renal is more than 100 µM; in the assay with XF 498 CNS, 57.3 µM; in the assay on SNB-78 CNS, more than 100 µM; in the assay on LXFL 529 NSCLC, more than 100 µM; with DMS 273 small cell lung, more than 100 µM; with DMS 114 small cell lung, more than 100 µM. The compound further gave a TGI in the assay on M19-MEL melanoma of more than 100 µM.

As to `COc1ccc2[nH]c3c(C)c4c(c(C)c3c2c1)CN(C)C=C4`, the TGI amounted to 34.6 µM with MDA-N; 5.78 µM with XF 498 CNS; 4.91 µM in the assay on SNB-78 CNS; 3.61 µM with LXFL 529 NSCLC; 10.3 µM with DMS 273 small cell lung; 3.05 µM in the assay on DMS 114 small cell lung. The TGI with M19-MEL melanoma is 5.53 µM; with HOP-18 NSCLC it was 47.7 µM.

On to `Cc1c(C)c2cc3c(=O)c(CCl)coc3c(C)c2oc1=O`, for which the TGI with RXF-631 renal, with SNB-78 CNS, in the assay on LXFL 529 NSCLC, with DMS 114 small cell lung, in the assay with M19-MEL melanoma and in the assay with HOP-18 NSCLC was more than 100 µM throughout.

As to `O=C(c1ccccc1)c1nc2c(Cl)ccc(Cl)c2cc1C(Br)Br`, the TGI was determined as 3.86 µM with RXF-631 renal; 2.29 µM with XF 498 CNS; 5.94 µM with SNB-78 CNS; 1.55 µM with LXFL 529 NSCLC; 3.14 µM with DMS 273 small cell lung; 6.19 µM in the assay on DMS 114 small cell lung. Besides, the TGI was found to be 6.26 µM in the assay on M19-MEL melanoma and 3.17 µM in the assay on HOP-18 NSCLC.

For `O=C1c2ccccc2C(=O)c2c1ccc1conc21`, the TGI in the assay on MDA-N was 1.41 µM; in the assay on RXF-631 renal, more than 26.5 µM; with SNB-78 CNS, 10.3 µM; in the assay on LXFL 529 NSCLC, 3.83 µM; in the assay on DMS 273 small cell lung, 8.17 µM; in the assay with DMS 114 small cell lung it was 3.42 µM. Further, the TGI in the assay with M19-MEL melanoma was found to be 3.09 µM; with HOP-18 NSCLC it was 26.2 µM.

In the case of `COc1ccc(-c2cc(=O)c3c(O)c(O)c(OC)cc3o2)cc1O`, the TGI in the assay on RXF-631 renal, in the assay with XF 498 CNS, with LXFL 529 NSCLC, in the assay on DMS 273 small cell lung, in the assay on M19-MEL melanoma and with HOP-18 NSCLC was more than 100 µM in each case.
